Reference: patent US20240366616A1, “SOLUBLE PHARMACEUTICAL COMPOSITIONS COMPRISING SALTS OF DISUBSTITUTED 1, 2, 4-TRIAZINE COMPOUND” (Mineralys Therapeutics, Inc., priority 2021, published 2024)
Values belong to the molecule of their own block, whether it stands above or below them.

How the values were obtained:
Assay type in all cases: physicochemical
[1] = Stability test of 10% API capsules: purity test (related substances); conditions: Initial
Procedure: Metal salt-free excipients were selected.
D-Mannitol and talc were mixed and sieved. The API was added to the sieved mixture, blended, sieved, and filled in HPMC capsules.

[2] = Dissolution test of ALDSI (JP Paddle Method, JP Second Fluid) and XRPD after storage or processing of API alone
Procedure: Storage conditions: 25° C./60% RH, 40° C./75% RH, and 60° C./75% RH (relative humidity) in an open container
Sampling time points: 3 days and 1 week
Test method: JP Apparatus for Paddle Method (Apparatus 2)
Revolutions: 50 rpm for 0-30 min, and 250 rpm for 30 min.
Dissolution medium: JP Second Fluid for dissolution test (A mixture of phosphate buffer solution (pH 6.8) and water (1:1), as described in the Japanese Pharmacopoeia.)

[3] = Powder x-ray diffraction of ALDSI stored with a metal salt (croscarmellose Na); conditions: 3 days storage with croscarmellose Na, 60° C./75% RH
Procedure: FIG. 1: Powder x-ray diffraction peaks detected from MLS-101 after 3 days of storage with a metal salt (croscarmellose Na) (storage conditions: 60° C./75% RH).
ALDSI-derived peaks were detected after 3 days of storage of ALDSI with a metal salt (croscarmellose Na). (storage conditions: 60° C./75% RH)

[4] = Study II of tablets: purity test (related substances) after storage; conditions: Initial
Source text: API granules, a disintegrant, and lubricants were mixed in a polyethylene bag. After confirming pressure dependency, the mixture was subjected to sequential tableting (900 kilogram of force, i.e. about 8826 Newtons).

[5] = Water solubility of API free base

Individual related substances RRT 0.95 [1]: 0.10% | Individual related substances RRT 0.96 [1]: 0.04% | Individual related substances RRT 0.98 [1]: 0.11% | Individual related substances RRT 1.18 [1]: 0.47% | Individual related substances RRT 1.19 [1]: 0.03% | Total related substances [1]: 0.75% | Dissolution changes over time ([2]; compressed API alone stored at 60° C./75% RH for 3 days or 1 week): no changes in dissolution over time | Dissolution changes over time ([2]; ground API alone stored at 60° C./75% RH for 3 days or 1 week): no changes in dissolution over time | Individual related substances RRT 0.81 [4]: 0.11% | Individual related substances RRT 0.85 [4]: 0.02% | Individual related substances RRT 1.09 [4]: 0.02% | Individual related substances RRT 1.13 [4]: 0.02% | Individual related substances RRT 1.35 [4]: 0.02% | Individual related substances RRT 1.43 [4]: 0.02% | Individual related substances RRT 1.69 [4]: 0.02% | Total related substances [4]: 0.23%
SMILES: CC(=O)N[C@H]1CC[C@H](NC(=O)CN2CCN(c3nncc(-c4ccc(C)cc4)n3)CC2)CC1 [ALDSI]
Dissolution differences among samples ([2]; API alone compressed at 300, 600, and 900 kilograms of force): no differences in dissolution among samples | Dissolution differences among samples ([2]; API alone ground for 1, 3, 20, and 30 min): no differences in dissolution among samples | Dissolution differences among samples ([2]; API alone kneaded with large, middle, and small amounts of water): no differences in dissolution among samples | Dissolution delay / new XRPD peaks after storage ([2]; API alone, 25° C./60% RH, 40° C./75% RH, 60° C./75% RH open container, 3 days and 1 week): no delay of dissolution or appearance of new peaks on XRPD | Propensity toward disproportionation in the presence of a metal salt [3]: high propensity toward disproportionation

Solubility in water [5]: poorly soluble in water
SMILES: CC(=O)N[C@H]1CC[C@H](NC(=O)CN2CCN(c3nncc(-c4ccc(C)cc4)n3)CC2)CC1 [API free base]
